The text below walks through data of patent US12558324B2, “Application of R-ketamine and salt thereof as pharmaceuticals” (National University Corporation Chiba University, priority 2013, dated 2026).

Molecules are shown by their SMILES. Bounds are passed on as bounds.

The subject of data set [1] is treatment-resistant obsessive-compulsive disorder and treatment-resistant posttraumatic stress disorder. The conditions noted are these: treatment-resistant patients; Non Patent Literatures 6 to 8; cited from earlier work.
Data set [2] concerns treatment-resistant patients with MDD. The conditions noted are these: cited from earlier work; for effective oral dose in patients with depression: Non Patent Literatures 15 and 16.
In data set [3] the test system is Control C57/B6 mice. The data set is described as follows: Conditioned place preference test in control mice (dependence). The settings on record: injected on day 4, 6, 8, evaluation on day 11, vs saline. How it is done: 15-minute habituation was performed for 3 days. Then, 30-minute conditioning was performed on day 4 to day 10, and a behavioral evaluation test was performed on day 11. Saline was injected on day 5, day 7, and day 9. […] In each of the groups, the injection was performed three times, i.e., on day 4, day 6, and day 8. Saline means a group injected with saline. In the group, the injection was performed three times, i.e., on day 5, day 7, and day 9.
The place preference test was performed using a conditioned place preference test apparatus (BrainSienceIdea Co., Ltd., Osaka, Japan).

Data set [4] has as its system mice exposed neonatally to DEX. The data set is described as follows: Forced swimming test (FST) in DEX-treated mice. The conditions noted are these: for immobility time in the FST: DEX-treated juvenile mice, 10 mg/kg i.p. single injection, vs saline.
Protocol: (§1) On the final day of this period, the females were placed in isolation and checked daily around the expected delivery day. The day of birth was defined as day 0. The mice were injected intraperitoneally with DEX (Wako Pure Chemical Industries, Ltd., Tokyo, Japan) dissolved in saline on day 1, day 2, and day 3 at doses of 0.5 mg/kg body weight, 0.3 mg/kg body weight, and 0.1 mg/kg body weight, respectively. In addition, normal controls were injected with equal volumes (10 ml/kg) of saline.
(§2) The TST was performed as described below. […] The FST was performed as described below. […] The cages were cleaned between testing session.
Data set [5] deals with social defeat stress mice. The data set is described as follows: Forced swimming test (FST) in social defeat stress mice. The conditions noted are these: for immobility time in the FST: 10 mg/kg i.p. single injection, vs saline; for antidepressant effects compared to S(+)-ketamine, FST: 10 mg/kg i.p.
Protocol: as §2
For data set [6] the following is noted: known property of both isomers; cited from earlier work.
For data set [7], the system named is social defeat stress mice. The data set is described as follows: Tail suspension test (TST) in social defeat stress mice. The settings on record: for immobility time in the TST: 10 mg/kg i.p. single injection, vs saline; for antidepressant effects compared to S(+)-ketamine, TST: 10 mg/kg i.p.
Protocol: as §2
In data set [8] the test system is Control C57/B6 mice. The data set is described as follows: Prepulse inhibition test in control mice (side effect). The conditions noted are these: 5, 10, or 20 mg/kg, prepulses 69, 73, 77, 81 dB before 110-dB pulse, vs saline.
Protocol: PP69, PP73, PP77, and PP81 mean that stimuli at 69, 73, 77, and 81 dB for more than 20 milliseconds were presented 100 milliseconds before a 110-dB pulse, respectively. Data analysis was performed by Wilks Lambda, which is multivariate analysis of variance.
The prepulse inhibition test was performed using a startle response system (SR-LAB, SanDiego Instruments, San Diego, CA, United States).
Data set [9] relates to Control C57/B6 mice. The data set is described as follows: Locomotion-enhancing effect in control mice (side effect). Type of data set: in vivo. The settings on record: for locomotion (count/10 min) after injection: vs saline. As to the method:
An effect of ketamine on the locomotion of mice was tested using SCANET MV-40 ([…] Co., Ltd., Toyama, Japan). Specifically, the locomotion was measured for a total of 180 minutes, i.e., 60 minutes before injection to 120 minutes after injection, and calculated as a locomotion per 10 minutes.

Data set [10] concerns social defeat stress mice. The data set is described as follows: 1% sucrose preference test (SPT) in social defeat stress mice. The settings on record: for sucrose consumption preference in the SPT: 10 mg/kg i.p. single injection, vs saline.
Protocol: as §2
Data set [11] relates to mice exposed neonatally to DEX. The data set is described as follows: Tail suspension test (TST) in DEX-treated mice. The conditions noted are these: for immobility time in the TST: DEX-treated juvenile mice, 10 mg/kg i.p. single injection, vs saline.
Protocol: as §1, §2
The subject of data set [12] is healthy volunteers. The settings on record: Non Patent Literature 13, cited from earlier work; for cerebral metabolic rates of glucose (CMRglu), PET: intravenous infusion of 15 mg for 5 min, then 0.014 to 0.02 mg/kg/min for 53 min (S), equimolar doses (R).
For data set [13] the following is noted: Non Patent Literature 12; cited from earlier work.
For data set [14] the following is noted: Non Patent Literature 12; cited from earlier work. The source holds these as a separate data set.

On to `CNC1(c2ccccc2Cl)CCCCC1=O.Cl` (racemic) [RS(+/−)-ketamine, ketamine hydrochloride], for which the “effect in obsessive-compulsive disorder and PTSD” value in [1] is “effective”. In addition, in data set [2] (Non Patent Literature 9), the “effect on suicide ideation” value is given as “effect of inhibiting suicide ideation”. Further, the “duration of clinical antidepressant effects (other reports)” value in data set [2] (effects may last, Non Patent Literatures 3, 4, and 11) was at least 2 weeks. Besides, the “antidepressant effect of intranasal administration” value in data set [2] (intranasal, treatment-resistant patients with MDD, Patent Literature 1 and Non Patent Literature 17) is on record as “showed antidepressant effect”. In [2], the “effective oral dose in patients with depression” value is given as 0.5 mg/kg. In [2] (starting from several hours after single administration), the “duration of clinical antidepressant effects” value is 1 to 2 days. For the same compound, the “antidepressant effects in patients” value in data set [2] (treatment-resistant patients with MDD and depressive symptoms of treatment-resistant bipolar disorder, Non Patent Literatures 3 to 5) is “rapid and robust antidepressant effects”. Besides, in data set [3] (10 mg/kg), the “conditioned place preference test score (CPP score)” value is given as “significantly increased the CPP score”.
For `CN[C@@]1(c2ccccc2Cl)CCCCC1=O.Cl` [R(−)-ketamine, R(−)-ketamine hydrochloride], the “immobility time in the FST” value is “markedly reduced the immobility time” in [4] (29 hours after injection), “significantly reduced the immobility time” in data set [4] (7 days after injection), “markedly reduced the immobility time” in [5] (2 days after injection) and “significantly reduced the immobility time” in data set [5] (7 days after injection). Also, the “antidepressant effects compared to S(+)-ketamine, FST” value in data set [4] (DEX-treated mice, 10 mg/kg i.p., 29 hours after injection, no significant difference) is “slightly high antidepressant effects as compared to those of S(+)-ketamine”; in data set [5] (2 days after injection) it was “significant high antidepressant effects as compared to those of S(+)-ketamine”; in data set [5] (7 days after injection) it was “significantly high antidepressant effects as compared to S(+)-ketamine”. Besides, in data set [4] (DEX-treated mice, 10 mg/kg i.p., 7 days after injection), the “difference between R(−)-ketamine and S(+)-ketamine, FST immobility time” value is “statistically significant”. The in vivo clearance entry in data set [6] was “rapid in vivo clearance”. Further, the “immobility time in the TST” value in data set [7] (2 days after injection) is reported as “markedly reduced the immobility time”; in data set [7] (7 days after injection), “significantly reduced the immobility time”; in data set [11] (27 hours after injection), “markedly reduced the immobility time”; in data set [11] (7 days after injection), “significantly reduced the immobility time”. The “antidepressant effects compared to S(+)-ketamine, TST” value is given as “significant high antidepressant effects as compared to those of S(+)-ketamine” in data set [7] (2 days after injection); “significantly high antidepressant effects as compared to S(+)-ketamine” in data set [7] (7 days after injection); “slightly high antidepressant effects as compared to those of S(+)-ketamine” in [11] (DEX-treated mice, 10 mg/kg i.p., 27 hours after injection, no significant difference). The prepulse inhibition entry in data set [8] is recorded as “did not disrupt prepulse inhibition”. Moreover, in data set [9] (5, 10, or 20 mg/kg, up to 120 minutes after injection), the “locomotion (count/10 min) after injection” value is “did not affect the locomotion”. Further, the “sucrose consumption preference in the SPT” value in data set [10] (1 day after injection) is given as “the sucrose consumption preference significantly increased”; in data set [10] (6 days after injection) it was “significantly restored the sucrose consumption preference”. Also, the “antidepressant effects compared to S(+)-ketamine, SPT” value in data set [10] (10 mg/kg i.p., 1 day after injection) is “more potent than those of S(+)-ketamine”. The “difference between R(−)-ketamine and S(+)-ketamine, SPT” value in [10] (10 mg/kg i.p., 6 days after injection) was “statistically significant”. Further, the “conditioned place preference test score (CPP score)” value in data set [3] (5, 10, or 20 mg/kg) is listed as “did not increase the CPP score”. Besides, the “psychotic symptoms in PET study” value in data set [12] (doses equimolar to psychotomimetic doses of S(+)-ketamine) is “did not produce psychotic symptoms”. Besides, the “cerebral metabolic rates of glucose (CMRglu), PET” value in data set [12] is “tended to decrease CMRglu across brain regions”.
Consider `CN[C@]1(c2ccccc2Cl)CCCCC1=O.Cl` [S(+)-ketamine, S(+)-ketamine hydrochloride], for which, in [13], the “psychotomimetic side effects compared to R-isomer” value is given as “greater psychotomimetic side effects than R-isomer”. For the same compound, the “immobility time in the FST” value in data set [4] (29 hours after injection) is on record as “markedly reduced the immobility time”; in data set [4] (7 days after injection), “did not reduce the immobility time”; in data set [5] (2 days after injection) it was “markedly reduced the immobility time”; in [5] (7 days after injection), “significantly reduced the immobility time”. Further, the “immobility time in the TST” value was “markedly reduced the immobility time” in [7] (2 days after injection), “significantly reduced the immobility time” in data set [7] (7 days after injection), “markedly reduced the immobility time” in data set [11] (27 hours after injection) and “did not reduce the immobility time” in [11] (7 days after injection). The prepulse inhibition result in [8] is reported as “disrupted prepulse inhibition in a dose-dependent manner”. Also, the “time after injection at which enhanced locomotion returned to a normal value” in [9] (10 mg/kg or 20 mg/kg) was 30 min. Besides, the “locomotion (count/10 min) after injection” value in [9] (10 mg/kg or 20 mg/kg, 10 minutes and 20 minutes after the injection) is recorded as “significant increase in locomotion”. For the same compound, in [2] (0.25 mg/kg, i.v., treatment-resistant patients with MDD, case report, Non Patent Literature 14), the “antidepressant effects compared to RS(+/−)-ketamine (0.5 mg/kg, i.v.)” value is “weaker than those of RS(+/−)-ketamine”. Also, the “effective oral dose in patients with depression” value in [2] is recorded as 1.25 mg/kg. Also, the entries for the “sucrose consumption preference in the SPT” value in [10] (1 day after injection) and in data set [10] (6 days after injection) were “the sucrose consumption preference significantly increased” and “significantly restored the sucrose consumption preference”, respectively. Also, the “conditioned place preference test score (CPP score)” value in data set [3] (5, 10, or 20 mg/kg) is “increased the CPP score in a dose-dependent manner”. Besides, in [12], the “cerebral metabolic rates of glucose (CMRglu), PET” value is “increased cerebral metabolic rates of glucose”. For the same compound, in data set [14], the “anesthetic effect as compared to R-isomer” value was 3- to 4 fold.
